Test [1] deals with Peptidoleukotriene Release in Guinea Pig Lung. Put plainly: Peptidoleukotriene Release Inhibition in Lung Assay. It is filed as cell-based. To be noted: Cavia porcellus; final concentration of 50 μm (so in the source); ovalbumin challenge, sensitized guinea pig lung. From the text:
The anti-allergy method of this invention is identified by tests that measure inhibition of leukotriene release in sensitized guinea pigs by compounds of the invention. This procedure is as follows.
First, kill sensitized guinea pigs by a blow to the head, remove the lungs and clean them of visible connective tissue, trachea and large blood vessels. Slice the lungs from individual animals into fragments approximately 1 mm in thickness using a McIlwain tissue chopper and wash them with oxygenated Tyrode's buffer. Transfer weighed aliquots (approximately 400 mg wet weight) of lung into vials containing 2 ml of fresh Tyrode's solution (containing 10 mM cysteine) and incubate in the presence or absence of test compound for 12 minutes at 37° C., challenge the tissues with 20 μg ovalbumin/ml (final concentration) and incubate for 15 minutes. To measure leukotriene release, extract an aliquot of supernatant fluid with 4 volumes of 100% ethanol. After removal of the precipitated protein, dry the clear fluid under a stream of N2 gas. Measure the leukotriene content by a radioimmunoassay using [^3 H]LTC4 (leukotriene C4) and antiserum obtained from New England Nuclear. […] Calculate percent inhibition of leukotriene release by comparing for each lung the release in the presence of the test compound to that in the absence of test compound.

Test [2] deals with T1, 5-lipoxygenase (Mus musculus, UniProt P48999).
T1 construct: Preincubate MC-9 cells (0.39 ml at 7.5×10^6 cells/ml) without or with test compound; endogenous in cells; host or cells: MC-9 murine mast cell clone (interleukin-3-dependent)
T1 sequence (P48999 1-674): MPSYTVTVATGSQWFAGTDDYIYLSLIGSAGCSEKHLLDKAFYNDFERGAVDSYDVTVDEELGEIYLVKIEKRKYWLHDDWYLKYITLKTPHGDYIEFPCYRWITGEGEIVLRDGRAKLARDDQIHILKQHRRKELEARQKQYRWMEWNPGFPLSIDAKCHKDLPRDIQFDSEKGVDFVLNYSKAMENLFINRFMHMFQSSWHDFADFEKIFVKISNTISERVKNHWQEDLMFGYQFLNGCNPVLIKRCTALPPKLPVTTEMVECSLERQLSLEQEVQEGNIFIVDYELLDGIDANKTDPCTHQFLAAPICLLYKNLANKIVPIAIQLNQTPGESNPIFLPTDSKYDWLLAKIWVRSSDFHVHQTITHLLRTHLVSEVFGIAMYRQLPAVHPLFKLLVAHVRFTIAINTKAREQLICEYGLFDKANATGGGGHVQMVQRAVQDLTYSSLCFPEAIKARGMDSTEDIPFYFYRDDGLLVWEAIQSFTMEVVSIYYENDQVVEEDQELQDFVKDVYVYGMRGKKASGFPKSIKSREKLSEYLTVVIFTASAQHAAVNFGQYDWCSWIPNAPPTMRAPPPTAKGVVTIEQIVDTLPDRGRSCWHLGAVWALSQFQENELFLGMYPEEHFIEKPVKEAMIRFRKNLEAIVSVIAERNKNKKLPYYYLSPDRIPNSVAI
The experiment in a line: 5-Lipoxygenase Assay (MC-9 mast cells, 5-HETE and LTC4 production). The class given is cell-based, murine. The conditions noted are these: for inhibition at 3.12 µM: MC9, 3.12 μM dose; for inhibition at 6.25 µM: MC9, 6.25 μM dose; for inhibition at 12.5 µM: MC9, 12.5 μM dose; for inhibition at 25 µM: MC9, 25 μM dose. As for the experimental part: Preincubate MC-9 cells (0.39 ml at 7.5×10^6 cells/ml) without or with test compound dissolved in dimethylsulfoxide (DMSO) vehicle (to a final volume 1 μl) for 4 minutes then incubate for 5 minutes with [^14 C]arachidonic acid (Amersham, 59 Ci/mole) at a 9 μM final concentration, and A23187 (Calbiochem) at a 1 μM final concentration in 10 μl of water:ethanol (9:1). Stop the reaction by addition of methanol (0.4 ml), and remove cellular debris by centrifugation. Run aliquots (250 μl) of the incubations on a Waters two-pump HPLC system fitted with a Waters radial compression column (C18, 10 micron, 8×100 mm, micro-Bondapak) and C18 "Guard Pak". Initially elute the column at 3 ml/min with water:methanol:acetic acid (67:33:0.08) containing 1 mM EDTA adjusted to pH 6.0 with ammonium hydroxide (Pump A). At 4 minutes, establish a linear gradient to reach 100% methanol (Pump B) at 9 minutes. Between 13 and 14 minutes, exchange for the initial eluting solvent and by 19 minutes the column will be reequilibrated for the next sample. Analyze the effluent by a continuous flow radioactivity monitor (model ROMONA-D) interfaced with a Hewlett Packard Lab Automation System for quantitation of radioactive products. […] Doses in table 2 are 50 μM unless otherwise noted.

Where [3] appears, read: MC9, 50 μM dose, MC-9 cells, read-out: % Inhibition 5-HETE.
[4] abbreviates: MC9, 50 μM dose, MC-9 cells, read-out: % Inhibition LTC4.
The mark [5] stands for this setting: MC-9 cells, read-out: % Inhibition 5-HETE.
The mark [6] stands for this setting: MC-9 cells, read-out: % Inhibition LTC4.

SMILES strings stand for the structures. Where a name gives a salt, the structure may show the parent alone. Read-outs that look alike come from different tables or passages of the source.

As to `CC(=O)Oc1ccc2c(=O)n3c(c(C)c2c1OC(C)=O)CCCC3` [9,10-bis(acetyloxy)-1,2,3,4-tetrahydro-11-methyl-6H-benzo[b]quinolizin-6-one], the inhibition at 50 µM in test [1] was determined as 84%; in test [2] (setting [3]) it was 74%.
As to `CC(=O)Oc1cc(OC(C)=O)c2c(-c3ccccc3)c[nH]c(=O)c2c1` [5,7-bis(acetyloxy)-4-phenyl-1(2H)-isoquinolinone], the inhibition at 50 µM in test [2] (setting [3]) stood at 19%; in test [2] (setting [4]) it was 16%.
Turning to `CC(=O)Oc1cc(OC(C)=O)c2c(-c3ccccc3)c(C)n(C)c(=O)c2c1` [5,7-bis(acetyloxy)-2,3-dimethyl-4-phenyl-1(2H)-isoquinolinone], the results for the inhibition at 50 µM in test [1] and in test [2] (setting [3]) were 45% and 5%, respectively.
For `Cc1c2n(c(=O)c3cc(O)cc(O)c13)CCCC2` [1,2,3,4-tetrahydro-8,10-dihydroxy-11-methyl-6H-benzo[b]quinolizin-6-one, disodium salt], the inhibition at 50 µM came out at 71% in test [1] and 88% in test [2] (MC9, read-out: % Inhibition 5-HETE).
`CC(=O)Oc1cc(OC(C)=O)c2c(OC(C)=O)c3n(c(=O)c2c1)CCCC3` [8,10,11-tris(acetyloxy)-1,2,3,4-tetrahydro-6H-benzo[b]quinolizin-6-one]: the inhibition at 50 µM in test [1] is 39%; in test [2] (setting [3]), 2%.
For the compound `CC(=O)Oc1cc(OC(C)=O)c2c(-c3ccccc3)c3n(c(=O)c2c1)CCCC3` [8,10-bis(acetyloxy)-1,2,3,4,-tetrahydro-11-phenyl-6H-benzo[b]quinolizin-6-one], the inhibition at 50 µM in test [1] was 66%; in test [2] (setting [3]), 21%.
Consider `Cc1c2n(c(=O)c3cc(OC(=O)C(C)(C)C)cc(OC(=O)C(C)(C)C)c13)CCCC2` [8,10-bis(2,2-dimethyl-1-oxopropoxy)-11-methyl-1,3,4,6-tetrahydro-6H-benzo[b]quinolizin-6-one], for which the inhibition at 50 µM in test [1] came out at 5%; in test [2] (setting [3]), 45%.
In the case of `O=c1c2cc(O)cc(O)c2c(O)c2n1CCCC2` [1,2,3,4-tetrahydro-8,10,11-trihydroxy-6H-benzo[b]quinolizin-6-one], the results for the inhibition at 50 µM in test [1] and in test [2] (setting [3]) were 28% and 18%, respectively.
As to `CC(=O)Oc1cc(OC(C)=O)c2c3c([nH]c(=O)c2c1)CCCC3` [8,10-bis(acetyloxy)-1,3,4,5,6-tetrahydro-6(2H)-phenanthridinone], the figures for the inhibition at 50 µM in test [1], in test [2] (setting [3]) and in test [2] (setting [4]) were 36%, 56% and 41%, respectively.
Consider `CC(=O)Oc1ccc2c(C)c3n(c(=O)c2c1OC(C)=O)CCCC3` [D, 7,8-bis(acetyloxy)-1,2,3,4-tetrahydro-11-methyl-6H-benzo[b]quinolizin-6-one], for which the results for the inhibition at 50 µM in test [1] and in test [2] (setting [3]) were 62% and 98%, respectively.
Turning to `CC(=O)Oc1cc(OC(C)=O)c2c(C)c[nH]c(=O)c2c1` [5,7-bis(acetyloxy)-4-methyl-1(2H)-isoquinolinone], the figures for the inhibition at 50 µM in test [2] (setting [3]) and in test [2] (setting [4]) were 43% and 40%, respectively.
Consider `CC(=O)Oc1cc(OC(C)=O)c2c(-c3ccccc3)c3n(c(=O)c2c1)CCC3` [7,9-bis(acetyloxy)-2,3-dihydro-10-phenyl-6H-pyrrolo[1,2-b]isoquinolin-5(1H)-one], for which the values for the inhibition at 50 µM in test [1], in test [2] (setting [3]) and in test [2] (setting [4]) were 76%, 18% and 10%, respectively.
For the compound `CC(=O)Oc1cc(OC(C)=O)c2c3c(n(C)c(=O)c2c1)CCC3`, the inhibition at 50 µM in test [2] (setting [3]) was 56%.
With `CC(=O)Oc1ccc2c(C)c3n(c(=O)c2c1)CCCC3` [8-acetyloxy-1,2,3,4-tetrahydro-11-methyl-6H-benzo[b]quinolizin-6-one], the inhibition at 50 µM in test [1] is 9%; in test [2] (setting [3]) it was 19%.
On to `Cc1c2n(c(=O)c3cc(OC(=O)CN)cc(OC(=O)CN)c13)CCCC2` [8,10-bis[(aminoacetyl)oxy]-11-methyl-1,2,3,4-tetrahydro-6H-benzo[b]quinolizine-6-one dihydrochloride], for which the inhibition at 50 µM in test [2] (setting [3]) is 99%.
Consider `O=c1[nH]c2c(c3c(O)cc(O)cc13)CCC2`, for which the inhibition at 50 µM in test [2] (setting [3]) was 31%.
`CC(=O)Oc1cc(OC(C)=O)c2c(C)c3n(c(=O)c2c1)CCCC3` [A, 8,10-bis(acetyloxy)-1,2,3,4-tetrahydro-11-methyl-6H-benzo[b]quinolizin-6-one]: the inhibition at 50 µM in test [1] amounted to 69%. In addition, in test [2] (setting [5]), the inhibition at 3.12 µM stood at 50%, the inhibition at 6.25 µM came out at 65%, the inhibition at 12.5 µM was 62% and the inhibition at 25 µM was determined as 93%. Besides, in test [2] (setting [6]), the inhibition at 3.12 µM came out at 57%, the inhibition at 6.25 µM worked out at 59%, the inhibition at 12.5 µM is 54% and the inhibition at 25 µM came out at 90%.
For `O=c1[nH]c2c(c3c(O)cc(O)cc13)CCCC2` [1,3,4,5-tetrahydro-8,10-dihydroxy-phenanthridin-6(2H)-one], the inhibition at 50 µM in test [2] (setting [3]) worked out at 31%.
As for `O=C1c2cc(O)cc(O)c2C(O)(c2ccccc2)C2CCCCN12` (stereo not shown) [1,2,3,4,11,11a-hexahydro-8,10,11-trihydroxy-11-phenyl-6H-benzo[b]quinolizin-6-one], the inhibition at 50 µM came to 23% in test [2] (setting [3]) and 32% in test [2] (setting [4]).
For the compound `CC(=O)Oc1ccc2c(c1)C(=O)N1CCCCC1C2(C)O` (stereo not shown) [8-acetyloxy-1,2,3,4,11,11a-hexahydro-11-hydroxy-11-methyl-6H-benzo[b]quinolizin-6-one], the inhibition at 50 µM in test [2] (setting [3]) was 5%.
In the case of `CC(=O)Oc1cc(OC(C)=O)c2c(-c3ccccc3)c(C)[nH]c(=O)c2c1` [5,7-bis(acetyloxy)-3-methyl-4-phenyl-1(2H)-isoquinolinone], the inhibition at 50 µM worked out at 12% in test [1], 31% in test [2] (setting [3]) and 27% in test [2] (setting [4]).
`Cc1c2n(c(=O)c3cc(O)cc(O)c13)CCCC2` [C, 1,2,3,4-tetrahydro-8,10-dihydroxy-11-methyl-6H-benzo[b]quinolizin-6-one]: the inhibition at 50 µM in test [1] was 61%; in test [2] (setting [3]), 100%.
